Results: patent publication US9220718B2, “Sonosensitive liposome, pharmaceutical composition including the same, and method of delivering active agent to subject using the sonosensitive liposome” (Samsung Electronics Co., Ltd., priority 2013, dated 2015)

System: Hela cells
Experiment: Cell viability by WST assay (WST-8, Cell Counting Kit-8)
Format: cell-based
Details: 10 ul of radical DX, 20 ug/ml of distilled water
Description: The same liposomes were exposed to ultrasound for 5 minutes at different amplitudes (i.e., 50%, 75%, and 100% of the maximum amplitude) at a frequency of 20 kHz. 10 ul of the sonicated liposomes (DX concentration of 20 ug/ml) was immediately added to Hela cells as described above, and then, incubated for 30 minutes. As a control group, a group treated with 10 ul of PBS, a group treated with 10 ul of radical DX (20 ug/ml of distilled water), and a group wherein HeLa cells are incubated at a temperature of 42° C. were all included. The cell viability thereof was obtained by counting viable cells using a WST assay [2-(2-methoxy-4-nitrophenyl)-3-(4-nitrophenyl)-5-(2,4-disulfophenyl)-2H-tetrazolium, monosodium salts] (WST-8, Cell Counting Kit-8, Dojindo, Japan).

`COc1cccc2c1C(=O)c1c(O)c3c(c(O)c1C2=O)C[C@@](O)(C(=O)CO)C[C@@H]3O[C@H]1C[C@H](N)[C@H](O)[C@H](C)O1` [radical Dx, Doxorubicin] was tested, and the “cell viability, compared with the sonicated liposomes (about 15%)” value was “similar”.
